Counter-ions that a name gives are not always drawn.
Legend:
[1] = test system: rabbits whose internal capsule was destroyed; conditions: known therapeutic agents; already confirmed by experiments; cited from earlier work
sciatic nerve = experiment: Afferent evoked potential in the cerebral cortex in response to stimulation of the sciatic nerve; type: in vivo
Protocol: In order to test the effect of the active compound of the present invention on perception, an experiment was carried out on afferent evoked potential in response to stimulation of the sciatic nerve.
When the sciatic nerve is stimulated, the potential evoked in the cerebral cortex is recorded and summed up. These evoked electric potentials are firstly three small negative responses, subsequently a positive response and followed by two large negative responses, which are designated as N1, N2, N3, P, N4 and N5, respectively.
In order to examine the effect of a compound of the present invention: dilinoleoylphosphatidic acid disodium salt on these components, N1, N2, N3, P, N4 and N5, sciatic nerve was simulated once per 1 second and the data of 50 times of stimulus were recorded and summed up. The results are shown in the accompanying FIGS. 15, 16, 17, 18, 19 and 20 which correspond to the data of N1, N2, N3, P, N4 and N5, respectively.

male mice = experiment: Toxicity in male mice, tail intravenous; type: in vivo, mouse; conditions: 100 mg/kg tail intravenous over 30 seconds; observed 75 hours
ICR mice = experiment: 7-day toxicity in ICR mice; conditions: mouse, in vivo
Spragne-Dowley rats = experiment: 7-day toxicity in rats; conditions: rat, in vivo

C[N+](C)(C)CCOP(=O)(O)OP(=O)([O-])OC[C@H]1O[C@@H](n2ccc(N)nc2=O)[C@H](O)[C@@H]1O [Citicoline, cytidine diphosphate choline]
effect on thresholds of evoked muscular discharge in fore- and hind-limbs [1]: decreasing effect of the thresholds of evoked muscular discharge

CCCCC/C=C\C/C=C\CCCCCCCC(=O)OCC(COP(=O)(O)O)OC(=O)CCCCCCC/C=C\C/C=C\CCCCC (centres unmarked) [dilinoleoylphosphatidic acid disodium salt]
effect on the afferent pathway (sciatic nerve; in vivo): facilitatory effect on the afferent pathway | effect on evoked potential components N1 and N2 (sciatic nerve; stimulation once per 1 second, 50 summed, FIGS. 15, 16): facilitatory effect on the components, N1 and N2, particularly on N1 | mortality (male mice): no mouse was died

polyenephosphatidylcholine
difference between male and female (ICR mice): no difference between male and female | symptoms (ICR mice): no abnormal symptom was observed except that the voluntary movement was slightly inhibited in the groups administered in a large dose | difference between male and female (Spragne-Dowley rats): no difference between male and female | symptoms (Spragne-Dowley rats): no abnormal symptom was observed except that the voluntary movement was slightly inhibited in the groups administered in a large dose

CN(C)CCOC(=O)COc1ccc(Cl)cc1.Cl [Meclofenoxate hydrochloride, (4-chlorophenoxy)acetic acid 2-(dimethylamino)ethyl ester hydrochloride]
effect on thresholds of evoked muscular discharge in fore- and hind-limbs [1]: decreasing effect of the thresholds of evoked muscular discharge

Cytochrome C: already used as therapeutic agent for the treatment of consciousness disorder and perception and movement disorder
effect on thresholds of evoked muscular discharge in fore- and hind-limbs [1]: decreasing effect of the thresholds of evoked muscular discharge

Cc1ncc(CSSCc2cnc(C)c(O)c2CO)c(CO)c1O [Pyrithioxin, 3,3'-(dithiodimethylene)-bis[5-hydroxy-6-methyl-4-pyridinemethanol]]
effect on thresholds of evoked muscular discharge in fore- and hind-limbs [1]: decreasing effect of the thresholds of evoked muscular discharge

Reference: patent US4263286A, “Therapeutic agent for consciousness disorder and perception and movement disorder” (Nippon Shoji Kaisha, Ltd., priority 1978, dated 1981)
